Results: ChEMBL document CHEMBL5291721, “A preclinical secondary pharmacology resource illuminates target-adverse drug reaction associations of marketed drugs” (Nat Commun, 2023)
Where a SMILES comes first, the peptide text is derived from it.

Tests used:
Adenosine receptor A2a = Adenosine receptor A2a (Homo sapiens, UniProt P29274)
[1] = target: T1, Alpha-2C adrenergic receptor (Homo sapiens, UniProt P18825); format: functional
T1 sequence (P18825 whole entry): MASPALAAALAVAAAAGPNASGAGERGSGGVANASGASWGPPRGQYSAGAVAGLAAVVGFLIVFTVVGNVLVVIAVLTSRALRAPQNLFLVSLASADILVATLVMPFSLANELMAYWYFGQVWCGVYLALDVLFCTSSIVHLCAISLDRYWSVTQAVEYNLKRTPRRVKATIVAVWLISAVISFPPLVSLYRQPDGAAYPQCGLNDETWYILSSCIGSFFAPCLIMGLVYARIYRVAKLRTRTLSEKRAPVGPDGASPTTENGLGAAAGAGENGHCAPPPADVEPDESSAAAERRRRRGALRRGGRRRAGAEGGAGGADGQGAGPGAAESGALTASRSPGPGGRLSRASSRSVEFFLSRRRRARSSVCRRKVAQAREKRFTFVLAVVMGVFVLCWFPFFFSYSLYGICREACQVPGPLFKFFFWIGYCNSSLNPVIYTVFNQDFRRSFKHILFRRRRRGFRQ

[2] = target: Voltage-dependent L-type calcium channel subunit alpha-1C (Rattus norvegicus, UniProt P22002); format: functional
Chain of Voltage-dependent L-type calcium channel subunit alpha-1C (P22002 whole entry): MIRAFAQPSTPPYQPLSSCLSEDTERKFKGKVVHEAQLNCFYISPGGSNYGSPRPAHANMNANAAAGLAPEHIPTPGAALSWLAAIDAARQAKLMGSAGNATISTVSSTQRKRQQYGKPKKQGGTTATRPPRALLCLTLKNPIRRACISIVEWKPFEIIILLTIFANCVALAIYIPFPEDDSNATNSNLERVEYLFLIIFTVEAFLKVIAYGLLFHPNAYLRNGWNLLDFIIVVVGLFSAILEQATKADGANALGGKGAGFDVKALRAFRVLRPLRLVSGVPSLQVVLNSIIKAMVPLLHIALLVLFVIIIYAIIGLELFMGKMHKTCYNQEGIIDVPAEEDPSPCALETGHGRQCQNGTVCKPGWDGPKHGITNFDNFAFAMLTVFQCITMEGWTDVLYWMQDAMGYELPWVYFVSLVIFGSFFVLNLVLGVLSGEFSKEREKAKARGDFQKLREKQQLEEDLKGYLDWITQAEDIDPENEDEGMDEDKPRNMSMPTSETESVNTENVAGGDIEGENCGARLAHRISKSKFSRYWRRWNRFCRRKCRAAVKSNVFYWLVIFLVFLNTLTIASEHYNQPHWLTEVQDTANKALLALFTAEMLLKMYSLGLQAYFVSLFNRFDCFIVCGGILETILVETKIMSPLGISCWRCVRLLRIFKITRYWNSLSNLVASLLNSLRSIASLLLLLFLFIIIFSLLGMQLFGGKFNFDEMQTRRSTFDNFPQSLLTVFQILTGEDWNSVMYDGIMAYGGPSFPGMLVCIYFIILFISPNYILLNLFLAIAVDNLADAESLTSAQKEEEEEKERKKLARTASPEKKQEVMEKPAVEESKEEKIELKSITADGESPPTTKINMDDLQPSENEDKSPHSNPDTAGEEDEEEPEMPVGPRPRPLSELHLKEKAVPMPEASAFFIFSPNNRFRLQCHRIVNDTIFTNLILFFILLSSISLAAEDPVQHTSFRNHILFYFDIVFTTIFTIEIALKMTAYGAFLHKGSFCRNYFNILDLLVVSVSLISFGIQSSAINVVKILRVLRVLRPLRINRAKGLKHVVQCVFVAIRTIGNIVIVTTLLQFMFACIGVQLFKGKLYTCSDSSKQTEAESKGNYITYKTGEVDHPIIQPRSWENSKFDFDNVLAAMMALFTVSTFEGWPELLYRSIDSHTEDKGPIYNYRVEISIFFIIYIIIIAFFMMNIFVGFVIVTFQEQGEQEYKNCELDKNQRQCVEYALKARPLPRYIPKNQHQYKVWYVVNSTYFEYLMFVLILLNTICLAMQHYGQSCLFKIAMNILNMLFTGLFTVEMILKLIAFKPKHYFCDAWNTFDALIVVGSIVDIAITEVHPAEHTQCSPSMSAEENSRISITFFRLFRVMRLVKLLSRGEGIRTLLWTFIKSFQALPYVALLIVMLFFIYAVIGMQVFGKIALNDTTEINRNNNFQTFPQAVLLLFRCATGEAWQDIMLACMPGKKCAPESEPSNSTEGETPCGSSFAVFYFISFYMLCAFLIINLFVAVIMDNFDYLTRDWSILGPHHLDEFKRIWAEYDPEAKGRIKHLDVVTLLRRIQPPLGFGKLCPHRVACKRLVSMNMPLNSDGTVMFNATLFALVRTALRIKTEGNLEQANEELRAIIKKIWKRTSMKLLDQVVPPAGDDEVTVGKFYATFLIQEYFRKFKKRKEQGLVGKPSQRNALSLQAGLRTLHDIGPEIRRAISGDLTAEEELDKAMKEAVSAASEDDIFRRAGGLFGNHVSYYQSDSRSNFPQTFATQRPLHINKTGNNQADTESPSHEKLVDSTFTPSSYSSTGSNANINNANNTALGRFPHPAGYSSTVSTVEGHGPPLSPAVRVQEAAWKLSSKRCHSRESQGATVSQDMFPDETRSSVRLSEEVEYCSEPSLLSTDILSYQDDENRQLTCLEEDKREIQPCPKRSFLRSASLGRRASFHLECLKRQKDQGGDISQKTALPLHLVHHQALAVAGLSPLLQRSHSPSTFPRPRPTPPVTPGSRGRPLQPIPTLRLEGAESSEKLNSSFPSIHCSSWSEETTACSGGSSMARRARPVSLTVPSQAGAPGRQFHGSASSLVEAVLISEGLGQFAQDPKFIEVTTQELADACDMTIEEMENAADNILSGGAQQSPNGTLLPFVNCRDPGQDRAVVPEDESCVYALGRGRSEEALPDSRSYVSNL

[3] = target: T2, Muscarinic acetylcholine receptor M2 (Homo sapiens, UniProt P08172); format: functional, cell-based
T2 sequence (P08172 whole entry): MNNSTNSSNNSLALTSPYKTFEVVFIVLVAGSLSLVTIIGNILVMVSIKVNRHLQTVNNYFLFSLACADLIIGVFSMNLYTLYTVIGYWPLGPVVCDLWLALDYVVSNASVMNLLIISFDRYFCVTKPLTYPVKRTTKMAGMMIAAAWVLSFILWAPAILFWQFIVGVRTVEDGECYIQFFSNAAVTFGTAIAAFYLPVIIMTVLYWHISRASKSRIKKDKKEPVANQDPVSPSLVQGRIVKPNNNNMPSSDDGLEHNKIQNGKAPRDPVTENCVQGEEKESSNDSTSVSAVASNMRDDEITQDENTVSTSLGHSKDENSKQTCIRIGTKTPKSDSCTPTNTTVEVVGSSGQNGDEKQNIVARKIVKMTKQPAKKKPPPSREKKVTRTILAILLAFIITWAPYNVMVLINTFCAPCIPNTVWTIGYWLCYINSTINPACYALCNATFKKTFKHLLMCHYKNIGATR

Cannabinoid receptor 1 = Cannabinoid receptor 1 (Homo sapiens, UniProt P21554); format: functional, cell-based
Endothelin-1 receptor = target: T3, Endothelin-1 receptor (Homo sapiens, UniProt P25101)
T3 sequence (P25101 whole entry): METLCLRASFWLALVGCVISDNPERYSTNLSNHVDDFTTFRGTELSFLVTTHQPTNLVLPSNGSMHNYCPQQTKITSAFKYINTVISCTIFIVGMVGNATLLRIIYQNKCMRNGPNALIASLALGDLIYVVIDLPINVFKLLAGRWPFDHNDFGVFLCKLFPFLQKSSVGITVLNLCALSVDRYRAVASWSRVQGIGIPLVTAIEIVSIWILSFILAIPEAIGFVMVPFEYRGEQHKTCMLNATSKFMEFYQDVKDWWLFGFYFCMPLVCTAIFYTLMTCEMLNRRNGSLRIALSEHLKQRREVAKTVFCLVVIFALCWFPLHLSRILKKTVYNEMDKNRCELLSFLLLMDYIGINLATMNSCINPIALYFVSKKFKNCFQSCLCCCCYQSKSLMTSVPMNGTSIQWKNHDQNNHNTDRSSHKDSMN

[4] = target: Growth hormone secretagogue receptor type 1 (Homo sapiens, UniProt Q92847)
Chain of Growth hormone secretagogue receptor type 1 (Q92847 whole entry): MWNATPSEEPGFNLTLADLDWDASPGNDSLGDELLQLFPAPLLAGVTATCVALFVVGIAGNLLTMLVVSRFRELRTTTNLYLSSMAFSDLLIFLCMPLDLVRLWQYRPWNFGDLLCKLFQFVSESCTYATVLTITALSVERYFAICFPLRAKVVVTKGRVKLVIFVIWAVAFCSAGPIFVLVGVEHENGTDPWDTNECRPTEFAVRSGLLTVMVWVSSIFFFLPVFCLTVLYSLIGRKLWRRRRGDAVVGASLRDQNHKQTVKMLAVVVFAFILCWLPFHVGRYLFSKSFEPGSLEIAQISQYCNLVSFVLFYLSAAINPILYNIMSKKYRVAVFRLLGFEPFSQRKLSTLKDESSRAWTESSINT

[5] = target: T4, 5-hydroxytryptamine receptor 2B (Homo sapiens, UniProt P41595); format: functional, cell-based
T4 sequence (P41595 whole entry): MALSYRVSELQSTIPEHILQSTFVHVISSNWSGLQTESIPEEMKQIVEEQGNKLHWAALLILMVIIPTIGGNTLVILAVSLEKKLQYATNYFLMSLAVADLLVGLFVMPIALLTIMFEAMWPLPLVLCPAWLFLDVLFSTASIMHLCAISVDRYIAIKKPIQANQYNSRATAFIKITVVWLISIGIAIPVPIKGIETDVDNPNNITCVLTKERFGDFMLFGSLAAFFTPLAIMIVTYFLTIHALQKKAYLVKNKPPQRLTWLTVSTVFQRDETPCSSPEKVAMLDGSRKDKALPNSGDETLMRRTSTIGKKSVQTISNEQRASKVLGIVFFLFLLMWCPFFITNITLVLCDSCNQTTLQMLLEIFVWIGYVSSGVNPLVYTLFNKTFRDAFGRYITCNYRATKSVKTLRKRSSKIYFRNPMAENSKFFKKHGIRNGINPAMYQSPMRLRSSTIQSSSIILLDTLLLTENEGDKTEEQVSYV

[6] = target: T4, 5-hydroxytryptamine receptor 2B; format: functional, cell-based; remark: listed apart in the source
Motilin receptor = Motilin receptor (Homo sapiens, UniProt O43193)
Chain of Motilin receptor (O43193 whole entry): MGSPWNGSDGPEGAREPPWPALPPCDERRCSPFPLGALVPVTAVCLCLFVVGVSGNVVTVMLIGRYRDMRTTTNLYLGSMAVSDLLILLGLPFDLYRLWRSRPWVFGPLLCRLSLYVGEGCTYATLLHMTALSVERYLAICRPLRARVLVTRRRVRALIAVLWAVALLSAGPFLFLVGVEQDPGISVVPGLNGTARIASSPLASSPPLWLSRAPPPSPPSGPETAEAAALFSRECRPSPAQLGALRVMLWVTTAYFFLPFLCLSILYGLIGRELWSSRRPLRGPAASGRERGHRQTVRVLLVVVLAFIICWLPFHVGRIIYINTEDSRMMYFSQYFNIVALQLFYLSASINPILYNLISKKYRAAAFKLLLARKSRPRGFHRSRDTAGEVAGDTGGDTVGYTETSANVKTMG

[7] = target: Kappa-type opioid receptor (Homo sapiens, UniProt P41145)
Chain of Kappa-type opioid receptor (P41145 whole entry): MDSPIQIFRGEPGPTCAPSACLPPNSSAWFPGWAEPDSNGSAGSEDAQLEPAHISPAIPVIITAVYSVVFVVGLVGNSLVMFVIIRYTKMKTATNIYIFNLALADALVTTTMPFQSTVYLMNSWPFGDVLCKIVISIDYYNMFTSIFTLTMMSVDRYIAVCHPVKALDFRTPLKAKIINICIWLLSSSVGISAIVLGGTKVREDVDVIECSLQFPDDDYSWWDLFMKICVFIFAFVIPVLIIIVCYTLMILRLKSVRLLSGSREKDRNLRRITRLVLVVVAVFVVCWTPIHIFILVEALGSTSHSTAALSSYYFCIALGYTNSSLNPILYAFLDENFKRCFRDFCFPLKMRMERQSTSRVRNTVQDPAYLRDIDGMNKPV

Progesterone receptor = target: T5, Progesterone receptor (Homo sapiens, UniProt P06401); format: functional
T5 sequence (P06401 whole entry): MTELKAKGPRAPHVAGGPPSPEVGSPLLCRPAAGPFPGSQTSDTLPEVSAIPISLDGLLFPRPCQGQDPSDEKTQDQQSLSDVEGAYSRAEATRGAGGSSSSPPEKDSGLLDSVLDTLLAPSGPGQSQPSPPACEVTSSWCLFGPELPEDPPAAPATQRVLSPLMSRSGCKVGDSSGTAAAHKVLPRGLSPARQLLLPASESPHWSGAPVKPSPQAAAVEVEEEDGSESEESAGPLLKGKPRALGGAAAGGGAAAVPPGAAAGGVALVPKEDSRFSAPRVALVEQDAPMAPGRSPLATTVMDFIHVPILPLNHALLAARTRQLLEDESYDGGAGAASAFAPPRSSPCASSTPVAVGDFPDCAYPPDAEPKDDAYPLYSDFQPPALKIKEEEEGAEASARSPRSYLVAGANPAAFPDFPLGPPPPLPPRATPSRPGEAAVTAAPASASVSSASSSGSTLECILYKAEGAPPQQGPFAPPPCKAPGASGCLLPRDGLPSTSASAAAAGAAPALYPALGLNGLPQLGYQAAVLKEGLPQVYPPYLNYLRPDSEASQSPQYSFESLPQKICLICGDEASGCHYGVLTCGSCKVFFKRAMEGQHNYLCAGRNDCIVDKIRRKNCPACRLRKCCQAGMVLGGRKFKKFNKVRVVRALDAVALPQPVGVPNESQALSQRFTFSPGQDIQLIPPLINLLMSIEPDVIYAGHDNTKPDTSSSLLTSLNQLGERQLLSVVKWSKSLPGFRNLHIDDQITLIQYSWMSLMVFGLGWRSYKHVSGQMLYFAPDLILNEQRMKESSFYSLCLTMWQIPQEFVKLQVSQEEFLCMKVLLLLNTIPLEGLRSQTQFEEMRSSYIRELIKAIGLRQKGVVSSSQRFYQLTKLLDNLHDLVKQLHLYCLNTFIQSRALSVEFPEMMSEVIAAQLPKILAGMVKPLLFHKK

Histamine H3 receptor = Histamine H3 receptor (Homo sapiens, UniProt Q9Y5N1)
[8] = target: Sodium-dependent noradrenaline transporter (Homo sapiens, UniProt P23975)
Chain of Sodium-dependent noradrenaline transporter (P23975 whole entry): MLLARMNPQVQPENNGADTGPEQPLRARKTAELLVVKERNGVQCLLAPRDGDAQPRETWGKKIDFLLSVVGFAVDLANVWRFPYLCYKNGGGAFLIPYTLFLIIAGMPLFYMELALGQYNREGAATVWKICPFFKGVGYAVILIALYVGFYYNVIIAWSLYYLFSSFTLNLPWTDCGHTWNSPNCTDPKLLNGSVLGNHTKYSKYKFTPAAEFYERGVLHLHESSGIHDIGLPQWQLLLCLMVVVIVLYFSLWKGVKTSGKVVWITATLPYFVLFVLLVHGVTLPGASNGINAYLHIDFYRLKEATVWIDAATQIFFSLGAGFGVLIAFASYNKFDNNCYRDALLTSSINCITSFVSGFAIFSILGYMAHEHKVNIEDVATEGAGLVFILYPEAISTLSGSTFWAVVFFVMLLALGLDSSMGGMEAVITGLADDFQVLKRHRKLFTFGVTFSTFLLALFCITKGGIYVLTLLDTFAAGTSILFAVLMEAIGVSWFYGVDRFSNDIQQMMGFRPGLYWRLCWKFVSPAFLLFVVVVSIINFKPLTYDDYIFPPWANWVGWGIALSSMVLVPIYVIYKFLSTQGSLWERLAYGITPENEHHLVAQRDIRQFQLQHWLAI
Further: assay procedure not described here.

Chain of Adenosine receptor A2a (P29274 whole entry): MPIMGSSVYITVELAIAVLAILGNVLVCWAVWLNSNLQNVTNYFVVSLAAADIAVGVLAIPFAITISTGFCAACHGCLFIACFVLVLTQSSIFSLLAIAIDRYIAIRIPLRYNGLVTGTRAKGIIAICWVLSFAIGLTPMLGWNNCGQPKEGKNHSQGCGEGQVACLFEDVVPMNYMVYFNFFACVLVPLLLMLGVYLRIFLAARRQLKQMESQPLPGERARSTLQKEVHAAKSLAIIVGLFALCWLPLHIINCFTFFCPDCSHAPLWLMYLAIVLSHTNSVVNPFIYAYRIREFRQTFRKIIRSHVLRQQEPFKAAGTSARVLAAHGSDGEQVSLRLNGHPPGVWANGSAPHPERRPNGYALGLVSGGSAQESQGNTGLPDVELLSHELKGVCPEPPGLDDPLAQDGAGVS

SMILES | AC50 (Adenosine receptor A2a) | AC50 [1] | AC50 [2] | AC50 [3] | AC50 (Cannabinoid receptor 1) | AC50 (Endothelin-1 receptor) | AC50 [4] | AC50 [5] | AC50 [6] | AC50 (Motilin receptor) | AC50 [7] | AC50 (Progesterone receptor) | AC50 (Histamine H3 receptor) | AC50 [8]
C[C@H](N)C(=O)N[C@@H](CCC(N)=O)C(=O)O [ALANYL GLUTAMINE] (H-Ala-Gln-OH) | > 30 µM | > 30 µM | > 30 µM | > 30 µM | > 30 µM | > 30 µM | > 30 µM | > 30 µM | > 30 µM | > 30 µM | > 30 µM | > 30 µM | > 30 µM | > 30 µM
CCN(CC)CCCN(c1ccccc1)C1Cc2ccccc2C1 [APRINDINE] | > 30 µM | 7.9 µM | > 10 µM | > 30 µM | > 30 µM | > 30 µM | 15 µM | > 30 µM | > 30 µM | > 30 µM | 0.795 µM | > 30 µM | 18 µM | 2.3 µM
CCCCOC(=O)c1ccc(N)cc1 [BUTAMBEN] | > 30 µM | > 30 µM | > 30 µM | > 30 µM | > 30 µM | > 30 µM | > 30 µM | > 30 µM | > 30 µM | > 30 µM | > 30 µM | > 30 µM | > 30 µM | > 30 µM
COc1cc(N)cn[n+]1-c1ccccc1 [AMEZINIUM METILSULFATE] | > 30 µM | > 30 µM | > 30 µM | > 30 µM | > 30 µM | > 30 µM | > 30 µM | > 30 µM | > 30 µM | > 30 µM | > 30 µM | > 30 µM | > 30 µM | 3.9 µM
CNCCc1ccccn1 [BETAHISTINE] | > 30 µM | > 30 µM | > 30 µM | > 30 µM | > 30 µM | > 30 µM | > 30 µM | > 30 µM | > 30 µM | > 30 µM | > 30 µM | > 30 µM | 11 µM | > 30 µM

Further lines, results first:

AC50 (Adenosine receptor A2a) | AC50 [1] | AC50 [2] | AC50 [3] | AC50 (Cannabinoid receptor 1) | AC50 (Endothelin-1 receptor) | AC50 [4] | AC50 [5] | AC50 [6] | AC50 (Motilin receptor) | AC50 [7] | AC50 (Progesterone receptor) | AC50 (Histamine H3 receptor) | AC50 [8] | SMILES
> 30 µM | > 30 µM | > 30 µM | > 30 µM | > 30 µM | > 30 µM | > 30 µM | > 30 µM | > 30 µM | > 30 µM | 20 µM | 10 µM | > 30 µM | – | CN1CCCN=C1/C=C/c1cccc(O)c1 [OXANTEL]
> 30 µM | > 30 µM | > 30 µM | > 30 µM | > 30 µM | > 30 µM | > 30 µM | > 30 µM | > 30 µM | > 30 µM | > 30 µM | > 30 µM | > 30 µM | > 30 µM | Cc1ccc(S(=O)(=O)NC(=O)N[C@H]2[C@H]3CC[C@@](C)([C@H]2O)C3(C)C)cc1 [GLIBORNURIDE]
> 30 µM | > 30 µM | > 30 µM | > 30 µM | > 30 µM | > 30 µM | > 30 µM | > 30 µM | > 30 µM | > 30 µM | > 30 µM | > 30 µM | > 30 µM | > 30 µM | CO/N=C(\C(=O)N[C@@H]1C(=O)N2C(C(=O)O)=C(CSc3nc(C)c(CC(=O)O)s3)CS[C@H]12)c1csc(N)n1 [CEFODIZIME]
> 30 µM | > 30 µM | > 30 µM | > 30 µM | > 30 µM | > 30 µM | > 30 µM | > 30 µM | > 30 µM | > 30 µM | > 30 µM | > 30 µM | > 30 µM | > 30 µM | CO/N=C(\C(=O)N[C@@H]1C(=O)N2C(C(=O)[O-])=C(C[n+]3ccc(N)n3CCO)CS[C@H]12)c1csc(N)n1 [CEFOSELIS]
> 30 µM | > 30 µM | > 30 µM | > 30 µM | > 30 µM | > 30 µM | > 30 µM | > 30 µM | > 30 µM | > 30 µM | 11 µM | > 30 µM | > 30 µM | > 30 µM | CN(C)CCOCC(=O)NC12CC3CC(CC(C3)C1)C2 [TROMANTADINE]
> 30 µM | > 30 µM | > 30 µM | > 30 µM | > 30 µM | > 30 µM | > 30 µM | > 30 µM | > 30 µM | > 30 µM | 27 µM | 22 µM | > 30 µM | > 30 µM | CCCO[C@H]1[C@@H]([C@@H](COCc2ccc(Cl)cc2)OCc2ccc(Cl)cc2)OC(OCC)[C@@H]1O (some centres undefined) [CLOBENOSIDE]
> 30 µM | > 30 µM | > 10 µM | > 30 µM | > 30 µM | > 30 µM | > 30 µM | > 30 µM | > 30 µM | > 30 µM | > 30 µM | > 30 µM | > 30 µM | > 30 µM | COc1ccc(C(Cl)=C(c2ccc(OC)cc2)c2ccc(OC)cc2)cc1 [CHLOROTRIANISENE]
> 30 µM | – | > 30 µM | > 30 µM | > 30 µM | > 30 µM | > 30 µM | > 30 µM | > 30 µM | > 30 µM | > 30 µM | > 30 µM | > 30 µM | – | COc1nc(C)nc(Cl)c1N=C1NCCN1 [MOXONIDINE]
